{"source": "paper PMC7714403", "about": "(JCI Insight, 2020)", "key": {"MASTL": {"target": "T1, MASTL (Homo sapiens, UniProt Q96GX5)", "T1 sequence (Q96GX5 1-879)": "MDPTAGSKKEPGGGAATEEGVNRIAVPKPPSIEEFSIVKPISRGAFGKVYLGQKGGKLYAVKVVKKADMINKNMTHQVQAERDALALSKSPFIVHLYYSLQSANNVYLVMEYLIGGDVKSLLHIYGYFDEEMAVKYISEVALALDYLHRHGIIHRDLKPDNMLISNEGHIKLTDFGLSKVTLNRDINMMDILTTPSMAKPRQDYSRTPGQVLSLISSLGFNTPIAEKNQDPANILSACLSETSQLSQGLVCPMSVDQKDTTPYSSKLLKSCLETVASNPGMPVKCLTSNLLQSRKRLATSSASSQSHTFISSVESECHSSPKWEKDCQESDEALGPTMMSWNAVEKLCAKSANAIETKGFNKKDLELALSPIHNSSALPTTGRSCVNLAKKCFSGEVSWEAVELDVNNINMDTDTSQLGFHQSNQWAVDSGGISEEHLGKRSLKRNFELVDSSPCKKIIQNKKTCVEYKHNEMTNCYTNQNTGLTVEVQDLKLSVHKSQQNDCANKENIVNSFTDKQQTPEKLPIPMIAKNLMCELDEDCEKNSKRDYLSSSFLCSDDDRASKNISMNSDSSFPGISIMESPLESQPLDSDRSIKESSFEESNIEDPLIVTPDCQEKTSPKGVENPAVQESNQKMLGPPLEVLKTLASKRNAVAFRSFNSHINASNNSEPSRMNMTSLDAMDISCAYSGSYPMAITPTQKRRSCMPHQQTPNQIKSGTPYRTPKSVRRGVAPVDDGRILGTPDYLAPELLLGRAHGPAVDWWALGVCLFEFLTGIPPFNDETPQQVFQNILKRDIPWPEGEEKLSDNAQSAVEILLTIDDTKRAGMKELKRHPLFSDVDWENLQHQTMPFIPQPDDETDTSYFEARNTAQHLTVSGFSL", "assay": "KiNativ, OCI cells live cell", "type": "cell-based"}, "RSK2 domain2": {"target": "T2, RSK2 domain2 (Homo sapiens, UniProt P51812)", "T2 construct": "RSK2 domain2", "assay": "KiNativ, OCI cells live cell", "type": "cell-based", "settings": "2 h, labeling site Lys2, peptide […]"}, "SBK": {"target": "SBK (Homo sapiens, UniProt Q52WX2)", "sequence (Q52WX2 whole entry)": "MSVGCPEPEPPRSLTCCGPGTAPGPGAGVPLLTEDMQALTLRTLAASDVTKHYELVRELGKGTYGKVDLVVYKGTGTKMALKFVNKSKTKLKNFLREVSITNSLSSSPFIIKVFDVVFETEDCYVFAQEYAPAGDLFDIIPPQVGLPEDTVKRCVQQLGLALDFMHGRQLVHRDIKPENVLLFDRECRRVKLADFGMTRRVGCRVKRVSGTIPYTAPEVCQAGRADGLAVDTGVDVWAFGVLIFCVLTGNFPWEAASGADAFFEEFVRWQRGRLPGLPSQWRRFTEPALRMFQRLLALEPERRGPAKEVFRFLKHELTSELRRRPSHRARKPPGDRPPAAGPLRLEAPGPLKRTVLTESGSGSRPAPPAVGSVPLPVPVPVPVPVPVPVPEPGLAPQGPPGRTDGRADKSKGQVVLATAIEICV", "assay": "KiNativ, OCI cells live cell", "type": "cell-based", "settings": "2 h, labeling site Lys2, peptide […]"}, "PIP4K2A": {"target": "PIP4K2A (Homo sapiens, UniProt P48426)", "sequence (P48426 whole entry)": "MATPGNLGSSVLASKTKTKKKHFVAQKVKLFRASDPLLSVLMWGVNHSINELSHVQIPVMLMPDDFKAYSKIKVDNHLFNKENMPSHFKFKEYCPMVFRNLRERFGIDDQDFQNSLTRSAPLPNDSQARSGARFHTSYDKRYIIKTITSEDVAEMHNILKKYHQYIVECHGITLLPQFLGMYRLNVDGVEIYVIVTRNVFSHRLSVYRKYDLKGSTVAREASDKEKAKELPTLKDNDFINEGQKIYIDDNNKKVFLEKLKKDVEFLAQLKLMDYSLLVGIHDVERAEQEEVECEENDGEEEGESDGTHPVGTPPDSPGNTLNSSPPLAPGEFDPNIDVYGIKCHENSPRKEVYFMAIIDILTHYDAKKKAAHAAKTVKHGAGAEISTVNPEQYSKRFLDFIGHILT", "assay": "KiNativ, OCI cells live cell", "type": "cell-based", "settings": "2 h, labeling site ATP, peptide […]"}, "TYK2 domain2": {"target": "T3, TYK2 domain2 (Homo sapiens, UniProt P29597)", "T3 construct": "TYK2 domain2", "assay": "KiNativ, OCI cells live cell", "type": "cell-based"}, "ULK3": {"target": "ULK3 (Homo sapiens, UniProt Q6PHR2)", "sequence (Q6PHR2 whole entry)": "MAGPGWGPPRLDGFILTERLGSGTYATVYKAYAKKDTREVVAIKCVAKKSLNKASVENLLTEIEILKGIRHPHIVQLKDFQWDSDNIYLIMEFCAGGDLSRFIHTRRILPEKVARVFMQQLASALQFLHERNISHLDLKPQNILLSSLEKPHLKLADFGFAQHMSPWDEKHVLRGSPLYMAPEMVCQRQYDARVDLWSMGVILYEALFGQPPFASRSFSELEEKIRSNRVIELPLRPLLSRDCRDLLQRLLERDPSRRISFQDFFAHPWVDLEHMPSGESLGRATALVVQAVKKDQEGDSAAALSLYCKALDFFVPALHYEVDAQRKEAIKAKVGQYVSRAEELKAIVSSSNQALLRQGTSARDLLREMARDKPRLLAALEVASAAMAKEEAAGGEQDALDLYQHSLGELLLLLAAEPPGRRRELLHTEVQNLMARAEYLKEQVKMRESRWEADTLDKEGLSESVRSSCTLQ", "assay": "KiNativ, OCI cells live cell", "type": "cell-based", "settings": "labeling site Lys1, peptide EVVAIKCVAK"}, "DGKA": {"target": "DGKA (Homo sapiens, UniProt P23743)", "sequence (P23743 whole entry)": "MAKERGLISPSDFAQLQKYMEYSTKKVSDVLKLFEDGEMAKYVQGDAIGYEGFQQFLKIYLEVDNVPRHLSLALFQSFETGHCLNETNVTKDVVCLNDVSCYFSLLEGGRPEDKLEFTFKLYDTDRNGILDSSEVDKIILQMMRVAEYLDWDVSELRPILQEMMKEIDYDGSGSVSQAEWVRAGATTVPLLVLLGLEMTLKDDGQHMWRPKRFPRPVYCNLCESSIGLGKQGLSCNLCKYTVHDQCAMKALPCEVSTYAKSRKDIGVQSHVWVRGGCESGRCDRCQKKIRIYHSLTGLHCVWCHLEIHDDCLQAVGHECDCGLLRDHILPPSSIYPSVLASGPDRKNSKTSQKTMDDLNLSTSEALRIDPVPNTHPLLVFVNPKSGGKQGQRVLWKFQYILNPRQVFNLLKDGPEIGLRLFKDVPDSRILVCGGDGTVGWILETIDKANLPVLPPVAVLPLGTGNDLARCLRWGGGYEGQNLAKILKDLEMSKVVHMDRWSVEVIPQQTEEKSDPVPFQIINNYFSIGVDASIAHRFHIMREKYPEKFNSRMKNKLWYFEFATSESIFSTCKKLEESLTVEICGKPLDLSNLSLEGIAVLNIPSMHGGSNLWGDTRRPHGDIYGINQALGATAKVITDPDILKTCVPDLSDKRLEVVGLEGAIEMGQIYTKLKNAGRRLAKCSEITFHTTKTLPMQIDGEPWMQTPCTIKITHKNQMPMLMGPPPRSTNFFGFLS", "assay": "KiNativ, OCI cells live cell", "type": "cell-based", "settings": "2 h, labeling site ATP, peptide […]"}, "CDK4": {"target": "CDK4 (Homo sapiens, UniProt P11802)", "sequence (P11802 2-303 limits assumed)": "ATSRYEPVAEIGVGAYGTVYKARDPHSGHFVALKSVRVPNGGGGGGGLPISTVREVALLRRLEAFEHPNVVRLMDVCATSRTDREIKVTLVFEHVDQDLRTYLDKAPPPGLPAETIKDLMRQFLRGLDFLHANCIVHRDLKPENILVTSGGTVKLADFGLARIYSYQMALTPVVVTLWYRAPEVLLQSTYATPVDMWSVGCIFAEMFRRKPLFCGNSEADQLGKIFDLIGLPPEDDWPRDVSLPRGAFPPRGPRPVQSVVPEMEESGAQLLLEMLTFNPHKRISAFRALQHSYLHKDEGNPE", "assay": "KiNativ, OCI cells live cell", "type": "cell-based", "settings": "2 h, labeling site Lys2, peptide […]"}, "NDR2": {"target": "NDR2 (Homo sapiens, UniProt Q9Y2H1)", "sequence (Q9Y2H1 whole entry)": "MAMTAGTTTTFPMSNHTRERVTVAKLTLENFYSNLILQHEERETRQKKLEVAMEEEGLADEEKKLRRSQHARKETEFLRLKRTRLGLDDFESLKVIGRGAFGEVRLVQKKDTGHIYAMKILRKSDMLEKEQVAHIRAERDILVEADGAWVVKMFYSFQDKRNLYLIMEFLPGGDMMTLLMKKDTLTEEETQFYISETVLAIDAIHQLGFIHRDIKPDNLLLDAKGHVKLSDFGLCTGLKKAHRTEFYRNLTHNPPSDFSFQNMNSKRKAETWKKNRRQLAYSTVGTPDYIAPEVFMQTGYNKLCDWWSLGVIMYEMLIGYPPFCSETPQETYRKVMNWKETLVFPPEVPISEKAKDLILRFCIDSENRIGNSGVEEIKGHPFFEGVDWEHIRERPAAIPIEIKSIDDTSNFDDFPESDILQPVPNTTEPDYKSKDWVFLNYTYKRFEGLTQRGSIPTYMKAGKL", "assay": "KiNativ, OCI cells live cell", "type": "cell-based", "settings": "2 h"}, "NEK7": {"target": "NEK7 (Homo sapiens, UniProt Q8TDX7)", "sequence (Q8TDX7 whole entry)": "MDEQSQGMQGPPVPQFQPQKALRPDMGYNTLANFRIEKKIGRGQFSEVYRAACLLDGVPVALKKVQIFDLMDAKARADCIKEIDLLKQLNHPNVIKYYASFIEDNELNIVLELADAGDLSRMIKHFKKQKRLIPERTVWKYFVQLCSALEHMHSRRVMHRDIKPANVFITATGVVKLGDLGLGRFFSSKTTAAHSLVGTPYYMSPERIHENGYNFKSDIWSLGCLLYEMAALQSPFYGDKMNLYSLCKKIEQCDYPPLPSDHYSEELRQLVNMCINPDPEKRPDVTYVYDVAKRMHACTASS", "assay": "KiNativ, OCI cells live cell", "type": "cell-based", "settings": "2 h, labeling site Lys1, peptide […]"}, "PLK4": {"target": "T4, PLK4 (Homo sapiens, UniProt O00444)", "T4 construct": "purchased Eurofins DiscoverX", "assay": "KdELECT binding assay"}, "PCTAIRE2": {"target": "PCTAIRE2 (Homo sapiens, UniProt Q00537)", "sequence (Q00537 whole entry)": "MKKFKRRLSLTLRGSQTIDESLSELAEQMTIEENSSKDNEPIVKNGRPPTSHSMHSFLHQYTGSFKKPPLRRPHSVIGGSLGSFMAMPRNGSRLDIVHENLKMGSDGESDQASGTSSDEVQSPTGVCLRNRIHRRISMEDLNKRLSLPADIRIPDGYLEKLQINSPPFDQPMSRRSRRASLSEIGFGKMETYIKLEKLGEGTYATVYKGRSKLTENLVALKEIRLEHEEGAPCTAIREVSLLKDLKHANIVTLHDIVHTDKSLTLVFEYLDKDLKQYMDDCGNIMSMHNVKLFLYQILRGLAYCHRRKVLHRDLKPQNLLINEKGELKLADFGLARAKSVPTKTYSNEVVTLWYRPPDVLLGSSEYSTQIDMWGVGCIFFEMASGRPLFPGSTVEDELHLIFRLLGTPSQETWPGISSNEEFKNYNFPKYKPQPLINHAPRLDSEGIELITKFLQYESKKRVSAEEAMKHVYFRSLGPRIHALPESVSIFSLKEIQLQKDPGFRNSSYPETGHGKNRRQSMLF", "assay": "KiNativ, OCI cells live cell", "type": "cell-based", "settings": "2 h, labeling site Lys2, peptide […]"}, "RSK2 domain1": {"target": "T5, RSK2 domain1 (Homo sapiens, UniProt P51812)", "T5 construct": "RSK2 domain1", "assay": "KiNativ, OCI cells live cell", "type": "cell-based", "settings": "2 h"}, "ZAK": {"target": "ZAK (Homo sapiens, UniProt Q9NYL2)", "assay": "KiNativ, OCI cells live cell", "type": "cell-based", "settings": "2 h, labeling site Lys1, peptide […]"}, "JAK1 domain2": {"target": "T6, JAK1 domain2 (Homo sapiens, UniProt P23458)", "T6 construct": "JAK1 domain2", "assay": "KiNativ, OCI cells live cell", "type": "cell-based"}, "MSK1 domain1": {"target": "T7, MSK1 domain1 (Homo sapiens, UniProt O75582)", "T7 construct": "MSK1 domain1", "assay": "KiNativ, OCI cells live cell", "type": "cell-based", "settings": "2 h, labeling site Lys2, peptide […]"}, "FLT3-ITD and TKD mutants": {"target": "FLT3-ITD and TKD mutants", "assay": "KdELECT binding assay", "settings": "range over FLT3-ITD and TKD mutants"}, "MAP3K2, MAP3K3": {"test_system": "MAP3K2, MAP3K3", "assay": "KiNativ, OCI cells live cell", "type": "cell-based, human", "settings": "labeling site Lys2, peptide DIKGANILR"}, "HCK": {"target": "HCK (Homo sapiens, UniProt P08631)", "assay": "KiNativ, OCI cells live cell", "type": "cell-based", "settings": "2 h, labeling site Activation Loop, peptide […]"}, "PAK2": {"target": "PAK2 (Homo sapiens, UniProt Q13177)", "sequence (Q13177 whole entry)": "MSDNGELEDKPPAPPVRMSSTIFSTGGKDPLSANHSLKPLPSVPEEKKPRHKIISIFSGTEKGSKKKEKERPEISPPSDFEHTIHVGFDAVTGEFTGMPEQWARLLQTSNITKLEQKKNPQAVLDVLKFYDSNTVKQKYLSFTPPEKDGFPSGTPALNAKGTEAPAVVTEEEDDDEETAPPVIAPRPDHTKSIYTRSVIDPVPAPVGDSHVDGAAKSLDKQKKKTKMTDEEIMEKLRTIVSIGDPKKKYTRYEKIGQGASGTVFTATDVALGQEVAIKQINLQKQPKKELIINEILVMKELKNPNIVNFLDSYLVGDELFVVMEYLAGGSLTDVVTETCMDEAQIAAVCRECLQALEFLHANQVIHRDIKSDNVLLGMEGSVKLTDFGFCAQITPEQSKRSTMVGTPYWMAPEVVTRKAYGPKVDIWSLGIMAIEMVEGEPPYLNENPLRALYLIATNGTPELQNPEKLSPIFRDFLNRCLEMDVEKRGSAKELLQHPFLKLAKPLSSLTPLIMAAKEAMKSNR", "assay": "KiNativ, OCI cells live cell", "type": "cell-based", "settings": "2 h"}, "[1]": {"test_system": "MV4-11, MOLM13, and MOLM13-RES cells", "assay": "MTT viability assay", "type": "cell-based", "settings": "Homo sapiens; range over MV4-11, MOLM13, MOLM13-RES", "procedure": "(§1) Drug treatments were carried out for 72 hours. Details are provided in the Supplemental Methods."}, "[2]": {"test_system": "Ba/F3 cells expressing FLT3 D835H/Y", "assay": "MTT viability assay", "type": "cell-based", "settings": "Mus musculus, BaF3, read-out: IC50 values, range", "procedure": "as §1"}, "RSK1 domain1": {"target": "T8, RSK1 domain1 (Homo sapiens, UniProt Q15418)", "T8 construct": "RSK1 domain1", "T8 sequence (Q15418 whole entry, the tested form may be a part)": "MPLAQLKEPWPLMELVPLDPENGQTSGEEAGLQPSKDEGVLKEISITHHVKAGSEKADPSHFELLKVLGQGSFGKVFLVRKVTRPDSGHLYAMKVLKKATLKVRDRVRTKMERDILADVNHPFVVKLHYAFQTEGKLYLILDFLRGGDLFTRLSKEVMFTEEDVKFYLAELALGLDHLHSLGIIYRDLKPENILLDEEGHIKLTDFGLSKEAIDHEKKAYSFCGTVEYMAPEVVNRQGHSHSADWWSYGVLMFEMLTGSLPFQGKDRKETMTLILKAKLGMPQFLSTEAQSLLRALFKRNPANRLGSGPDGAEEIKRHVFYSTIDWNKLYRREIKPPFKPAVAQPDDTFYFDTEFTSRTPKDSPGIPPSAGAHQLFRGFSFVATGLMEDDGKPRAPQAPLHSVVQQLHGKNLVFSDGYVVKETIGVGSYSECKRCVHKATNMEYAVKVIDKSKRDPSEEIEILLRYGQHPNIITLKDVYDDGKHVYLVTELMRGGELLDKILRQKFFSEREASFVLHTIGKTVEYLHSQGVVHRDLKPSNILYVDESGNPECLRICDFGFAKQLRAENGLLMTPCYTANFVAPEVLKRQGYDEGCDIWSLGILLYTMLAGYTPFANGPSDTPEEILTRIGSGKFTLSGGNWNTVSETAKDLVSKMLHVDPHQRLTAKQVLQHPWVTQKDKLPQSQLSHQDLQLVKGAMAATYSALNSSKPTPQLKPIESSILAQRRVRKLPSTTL", "assay": "KiNativ, OCI cells live cell", "type": "cell-based", "settings": "2 h"}}}
{"smiles": "CN1CCN(Cc2ccc(Nc3ncc(Cl)c(Nc4ccccc4S(=O)(=O)N(C)C)n3)cc2)CC1", "note": "[TP-0903]", "values": [{"measurement": "Inhibition", "setting": "MASTL; labeling site ATP Loop, peptide GAFGKVYLGQK", "result": 6.7, "unit": "%"}, {"measurement": "Inhibition", "setting": "MASTL; labeling site Lys1, peptide LYAVKVVK", "result": 34.3, "unit": "%"}, {"measurement": "inhibition at 0.1 µM", "setting": "RSK2 domain2", "result": -18.2, "unit": "%"}, {"measurement": "inhibition at 0.1 µM", "setting": "SBK", "result": -0.9, "unit": "%"}, {"measurement": "inhibition at 0.1 µM", "setting": "PIP4K2A", "result": -17.8, "unit": "%"}, {"measurement": "Inhibition", "setting": "TYK2 domain2; labeling site Activation Loop, peptide IGDFGLAKAVPEGHEYYR", "result": -38.7, "unit": "%"}, {"measurement": "Inhibition", "setting": "TYK2 domain2; labeling site Lys1, peptide VSLYCYDPTNDGTGEMVAVKALK", "result": 21.1, "unit": "%"}, {"measurement": "Inhibition", "setting": "ULK3", "result": 40.5, "unit": "%"}, {"measurement": "inhibition at 0.1 µM", "setting": "DGKA", "result": -41.6, "unit": "%"}, {"measurement": "inhibition at 0.1 µM", "setting": "CDK4", "result": 24.3, "unit": "%"}, {"measurement": "inhibition at 0.1 µM", "setting": "NDR2; labeling site Lys1, peptide DTGHIYAMKILR", "result": 21.5, "unit": "%"}, {"measurement": "inhibition at 0.1 µM", "setting": "NDR2; labeling site Lys2, peptide DIKPDNLLLDAK", "result": -7, "unit": "%"}, {"measurement": "inhibition at 0.1 µM", "setting": "NEK7", "result": -38.8, "unit": "%"}, {"measurement": "Kd", "setting": "PLK4", "result": "< 5", "unit": "nM"}, {"measurement": "inhibition at 0.1 µM", "setting": "PCTAIRE2", "result": 87.8, "unit": "%"}, {"measurement": "inhibition at 0.1 µM", "setting": "RSK2 domain1; labeling site Activation Loop, peptide LTDFGLSKESIDHEKK", "result": 52.4, "unit": "%"}, {"measurement": "inhibition at 0.1 µM", "setting": "RSK2 domain1; labeling site Lys1, peptide QLYAMKVLK", "result": 48.2, "unit": "%"}, {"measurement": "inhibition at 0.1 µM", "setting": "ZAK", "result": 5.3, "unit": "%"}, {"measurement": "Inhibition", "setting": "JAK1 domain2; labeling site Activation Loop, peptide IGDFGLTKAIETDKEYYTVK", "result": -56.4, "unit": "%"}, {"measurement": "Inhibition", "setting": "JAK1 domain2; labeling site Lys1, peptide YDPEGDNTGEQVAVKSLKPESGGNHIADLKK", "result": -85.5, "unit": "%"}, {"measurement": "inhibition at 0.1 µM", "setting": "MSK1 domain1", "result": 8.3, "unit": "%"}, {"measurement": "Kd", "setting": "FLT3-ITD and TKD mutants", "result": "0.79 to 5.6", "unit": "nM"}, {"measurement": "Inhibition", "setting": "MAP3K2, MAP3K3", "result": 21.4, "unit": "%"}, {"measurement": "inhibition at 0.1 µM", "setting": "HCK", "result": -3.8, "unit": "%"}, {"measurement": "inhibition at 0.1 µM", "setting": "PAK2; labeling site Lys1, peptide IGQGASGTVFTATDVALGQEVAIKQINLQK", "result": -53.1, "unit": "%"}, {"measurement": "inhibition at 0.1 µM", "setting": "PAK2; labeling site Other, peptide KNPQAVLDVLKFYDSNTVK", "result": -21.3, "unit": "%"}, {"measurement": "IC50", "setting": "[1]", "result": "16 to 21", "unit": "nM"}, {"measurement": "IC50", "setting": "[2]", "result": "16 to 22", "unit": "nM"}, {"measurement": "inhibition at 0.1 µM", "setting": "RSK1 domain1; labeling site Activation Loop, peptide LTDFGLSKEAIDHEKK", "result": 44.9, "unit": "%"}, {"measurement": "inhibition at 0.1 µM", "setting": "RSK1 domain1; labeling site Lys1, peptide KVTRPDSGHLYAMKVLK", "result": 42.9, "unit": "%"}]}
